Our source for the Ki values is BindingDB's records for doi:10.1021/bi3002067 (The University of Auckland, 2012).

For the assay, the target named is Salicylate synthase (Mycobacterium tuberculosis (strain CDC 1551 / Oshkosh), UniProt P9WFX0). The assay is described as follows: Fluorescence-Based Thermal Shift Assay. On the procedure: The thermal stability of MbtI in the absence and presence of inhibitors was measured using a fluorescence-based thermal shift assay.
Chain of Salicylate synthase (P9WFX0 whole entry): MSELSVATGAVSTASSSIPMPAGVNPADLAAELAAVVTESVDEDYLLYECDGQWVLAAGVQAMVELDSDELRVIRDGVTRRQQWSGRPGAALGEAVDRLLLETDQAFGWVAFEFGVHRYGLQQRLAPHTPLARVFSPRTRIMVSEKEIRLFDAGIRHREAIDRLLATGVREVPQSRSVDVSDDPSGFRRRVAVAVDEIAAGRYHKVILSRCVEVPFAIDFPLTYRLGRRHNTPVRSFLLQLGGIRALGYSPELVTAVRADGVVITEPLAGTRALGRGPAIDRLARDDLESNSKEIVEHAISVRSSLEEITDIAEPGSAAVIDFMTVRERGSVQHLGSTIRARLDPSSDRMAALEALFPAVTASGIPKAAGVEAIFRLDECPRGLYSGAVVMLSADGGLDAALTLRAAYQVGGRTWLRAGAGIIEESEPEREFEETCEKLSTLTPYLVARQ

For `O=C(O)C(=CC1CC1)Oc1cccc(C(=O)O)c1O` [cyclopropyl-AMT], the Ki came to 12 µM.

The Ki is a dissociation constant, usually derived from enzyme kinetics or from competition with a known ligand.
